The results in this text go back to patent US8664203B2, “Thiazole derivatives and their use as P2Y12 receptor antagonists” (Actelion Pharmaceuticals Ltd., priority 2009, dated 2014).

A word on the pIC50: it is −log10 of the IC50, conventionally taken in molar units.

pIC50: −log10 of the molar value. Counter-ions that a name gives are not always drawn.

For this assay, the target named is T1, human P2Y12 receptor (Homo sapiens, UniProt Q9H244).
T1 construct: expressed in transfected cells; host or cells: CHO cells
T1 sequence (Q9H244 whole entry): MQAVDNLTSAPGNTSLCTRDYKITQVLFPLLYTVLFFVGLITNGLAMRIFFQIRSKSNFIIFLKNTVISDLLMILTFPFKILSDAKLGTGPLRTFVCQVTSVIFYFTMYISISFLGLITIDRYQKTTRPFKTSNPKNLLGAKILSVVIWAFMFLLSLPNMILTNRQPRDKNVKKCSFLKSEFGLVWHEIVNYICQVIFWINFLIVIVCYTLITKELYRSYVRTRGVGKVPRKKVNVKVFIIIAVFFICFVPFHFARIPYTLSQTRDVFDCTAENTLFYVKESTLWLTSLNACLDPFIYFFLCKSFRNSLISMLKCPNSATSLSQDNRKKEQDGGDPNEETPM
In words: P2Y12 receptor binding assay. To be noted: CHO cells with recombinant expression of the human P2Y12 receptor; tritium-labeled 2-methyl-S-ADP; RT, 2 hours. The method, then:
P2Y12 Receptor Binding Assay
Chinese Hamster Ovary (CHO) cells with recombinant expression of the human P2Y12 receptor were cultured in 24 well cell-culture plates. Cells were washed three times with binding buffer (50 mM Tris pH 7.4, 100 mM NaCl, 1 mM EDTA, 0.5% BSA). The cells were then incubated with 0.5 ml per well binding buffer containing tritium-labeled 2-methyl-thio-adenosine 5′-diphosphate (2-methyl-S-ADP) (between 100′000 and 300′000 dpm per well) and various concentrations of test compounds. After incubation at RT for 2 hours, cells were washed three times with binding buffer. Then, cells were solubilized by addition of 0.5 ml solubilization buffer (SDS, NaOH, EDTA). The content of each well was then transferred into beta-counter vials and 2.0 ml of Ultima Gold Scintillation liquid was added.
As to `CCCCOC(=O)N1CCN(C(=O)CNC(=O)c2nc(-c3ccccc3)sc2-c2cccc(F)c2)CC1` [Example 29, 4-(2-{[5-(3-Fluoro-phenyl)-2-phenyl-thiazole-4-carbonyl]-amino}-acetyl)-piperazine-1-carboxylic acid butyl ester], the negative-log IC50 (pIC50) was 6.28.
Take `CCCCOC(=O)N1CCN(C(=O)CNC(=O)c2nc(-c3ccccc3)sc2/C=C/C(=O)OCC)CC1` [Example 30, 4-(2-{[5-((E)-2-Ethoxycarbonyl-vinyl)-2-phenyl-thiazole-4-carbonyl]-amino}-acetyl)-piperazine-1-carboxylic acid butyl ester]: the negative-log IC50 (pIC50) was 6.57.
The same measure for `CCCCOC(=O)N1CCN(C(=O)CNC(=O)c2nc(-c3ccccc3)sc2/C=C/C(=O)O)CC1` [Example 31, 4-(2-{[5-((E)-2-Carboxy-vinyl)-2-phenyl-thiazole-4-carbonyl]-amino}-acetyl)-piperazine-1-carboxylic acid butyl ester]: 7.72; for `CCCCOC(=O)N1CCN(C(=O)CNC(=O)c2nc(-c3ccccc3)sc2CCC(=O)OCC)CC1` [Example 32, 4-(2-{[5-(2-Ethoxycarbonyl-ethyl)-2-phenyl-thiazole-4-carbonyl]-amino}-acetyl)-piperazine-1-carboxylic acid butyl ester]: 6.80; for `CCCCOC(=O)N1CCN(C(=O)CNC(=O)c2nc(-c3ccccc3)sc2CCC(=O)O)CC1` [Example 33, 4-(2-{[5-(2-Carboxy-ethyl)-2-phenyl-thiazole-4-carbonyl]-amino}-acetyl)-piperazine-1-carboxylic acid butyl ester]: 7.51.
The same measure for `CCCCOC(=O)N1CCN(C(=O)CNC(=O)c2nc(-c3ccccc3)sc2C=CCOC)CC1` [Example 34, 4-(2-{[5-(3-Methoxy-propenyl)-2-phenyl-thiazole-4-carbonyl]-amino}-acetyl)-piperazine-1-carboxylic acid butyl ester]: 7.07; for `CCCCOC(=O)N1CCN(C(=O)CNC(=O)c2nc(-c3ccccc3)sc2CCCOC)CC1` [Example 35, 4-(2-{[5-(3-Methoxy-propyl)-2-phenyl-thiazole-4-carbonyl]-amino}-acetyl)-piperazine-1-carboxylic acid butyl ester]: 7.00.
For `CCCCOC(=O)N1CCN(C(=O)[C@@H](NC(=O)c2csc(-c3ccccc3)n2)C(C)C)CC1` [Example 36, 4-{(S)-3-Methyl-2-[(2-phenyl-thiazole-4-carbonyl)-amino]-butyryl}-piperazine-1-carboxylic acid butyl ester], the negative-log IC50 (pIC50) was 6.98.
Consider `CCCCOC(=O)N1CCN(C(=O)[C@H](CO)NC(=O)c2nc(-c3ccccc3)sc2Br)CC1` [Example 37, 4-{(S)-2-[(5-Bromo-2-phenyl-thiazole-4-carbonyl)-amino]-3-hydroxy-propionyl}-piperazine-1-carboxylic acid butyl ester], for which the pIC50 is 6.16.
In the case of `CCCCOC(=O)N1CCN(C(=O)[C@H](CO)NC(=O)c2csc(-c3ccccc3)n2)CC1` [Example 38, 4-{(S)-3-Hydroxy-2-[(2-phenyl-thiazole-4-carbonyl)-amino]-propionyl}-piperazine-1-carboxylic acid butyl ester], the pIC50 is 7.15.
The same measure for `CCCCOC(=O)N1CCN(C(=O)[C@H](CO)NC(=O)c2nc(-c3ccccc3)sc2/C=C/C(=O)O)CC1` [Example 39, 4-((S)-2-{[5-((E)-2-Carboxy-vinyl)-2-phenyl-thiazole-4-carbonyl]-amino}-3-hydroxy-propionyl)-piperazine-1-carboxylic acid butyl ester]: 7.46; for `CCCCOC(=O)N1CCN(C(=O)[C@H](CO)NC(=O)c2nc(-c3ccccc3)sc2CCC(=O)O)CC1` [Example 40, 4-((S)-2-{[5-(2-Carboxy-ethyl)-2-phenyl-thiazole-4-carbonyl]-amino}-3-hydroxy-propionyl)-piperazine-1-carboxylic acid butyl ester]: 7.37; for `CCCCOC(=O)N1CCN(C(=O)[C@H](CP(=O)(O)O)NC(=O)c2csc(-c3ccc(F)cc3)n2)CC1` [Example 41, 4-((R)-2-{[2-(4-Fluoro-phenyl)-thiazole-4-carbonyl]-amino}-3-phosphono-propionyl)-piperazine-1-carboxylic acid butyl ester]: 8.22.
The value for `CCCCOC(=O)N1CCN(C(=O)[C@H](CP(=O)(OCC)OCC)NC(=O)c2nc(-c3ccccc3)sc2-c2ccccc2)CC1` [Example 42, 4-{(R)-3-(Diethoxy-phosphoryl)-2-[(2,5-diphenyl-thiazole-4-carbonyl)-amino]-propionyl}-piperazine-1-carboxylic acid butyl ester] was 5.66; that for `CCCCOC(=O)N1CCN(C(=O)[C@H](CP(=O)(O)O)NC(=O)c2nc(-c3ccccc3)sc2-c2ccccc2)CC1` [Example 43, 4-{(R)-2-[(2,5-Diphenyl-thiazole-4-carbonyl)-amino]-3-phosphono-propionyl}-piperazine-1-carboxylic acid butyl ester] was 7.89.
The value for `CCCCOC(=O)N1CCN(C(=O)[C@H](CP(=O)(OCC)OCC)NC(=O)c2nc(-c3ccccc3)sc2N2CCN(C)CC2)CC1` [Example 44, 4-((R)-3-(Diethoxy-phosphoryl)-2-{[5-(4-methyl-piperazin-1-yl)-2-phenyl-thiazole-4-carbonyl]-amino}-propionyl)-piperazine-1-carboxylic acid butyl ester] was 5.38; that for `CCCCOC(=O)N1CCN(C(=O)[C@H](CP(=O)(O)O)NC(=O)c2nc(-c3ccccc3)sc2N2CCN(C)CC2)CC1` [Example 45, 4-((R)-2-{[5-(4-Methyl-piperazin-1-yl)-2-phenyl-thiazole-4-carbonyl]-amino}-3-phosphono-propionyl)-piperazine-1-carboxylic acid butyl ester; hydrochloride] was 8.52; that for `CCCCOC(=O)N1CCN(C(=O)[C@H](CP(=O)(OCC)OCC)NC(=O)c2nc(-c3ccccc3)sc2N(C)CCCC)CC1` [Example 46, 4-[(R)-2-{[5-(Butyl-methyl-amino)-2-phenyl-thiazole-4-carbonyl]-amino}-3-(diethoxy-phosphoryl)-propionyl]-piperazine-1-carboxylic acid butyl ester] was 6.09.
Take `CCCCOC(=O)N1CCN(C(=O)[C@H](CP(=O)(O)O)NC(=O)c2nc(-c3ccccc3)sc2N(C)CCCC)CC1` [Example 47, 4-((R)-2-{[5-(Butyl-methyl-amino)-2-phenyl-thiazole-4-carbonyl]-amino}-3-phosphono-propionyl)-piperazine-1-carboxylic acid butyl ester]: the pIC50 is 8.52.
In the case of `CCCCOC(=O)N1CCN(C(=O)[C@H](CP(=O)(O)O)NC(=O)c2nc(-c3ccccc3)c(Br)s2)CC1` [Example 48, 4-{(R)-2-[(5-Bromo-4-phenyl-thiazole-2-carbonyl)-amino]-3-phosphono-propionyl}-piperazine-1-carboxylic acid butyl ester], the pIC50 was 8.22.
The same measure for `CCCCOC(=O)N1CCN(C(=O)[C@H](CP(=O)(O)O)NC(=O)c2nc(-c3ccccc3)c(-c3ccccc3)s2)CC1` [Example 49, 4-{(R)-2-[(4,5-Diphenyl-thiazole-2-carbonyl)-amino]-3-phosphono-propionyl}-piperazine-1-carboxylic acid butyl ester]: 6.82; for `CCCCOC(=O)N1CCN(C(=O)CNC(=O)c2nc(-c3ccccc3)c(-c3ccccc3)s2)CC1` [Example 50, 4-{2-[(4,5-Diphenyl-thiazole-2-carbonyl)-amino]-acetyl}-piperazine-1-carboxylic acid butyl ester]: 5.93.
For the compound `CCCCOC(=O)N1CCN(C(=O)CNC(=O)c2nc(-c3ccccc3)c(/C=C/COC)s2)CC1` [Example 51, 4-(2-{[5-((E)-3-Methoxy-propenyl)-4-phenyl-thiazole-2-carbonyl]-amino}-acetyl)-piperazine-1-carboxylic acid butyl ester], the negative logarithm of the IC50 (pIC50) is 6.42.
With `CCCCOC(=O)N1CCN(C(=O)CNC(=O)c2nc(-c3ccccc3)c(CCCOC)s2)CC1` [Example 52, 4-(2-{[5-(3-Methoxy-propyl)-4-phenyl-thiazole-2-carbonyl]-amino}-acetyl)-piperazine-1-carboxylic acid butyl ester], the pIC50 is 6.13.
The value for `CCCCOC(=O)N1CCN(C(=O)CNC(=O)c2nc(-c3ccccc3)c(/C=C/C(=O)OCC)s2)CC1` [Example 53, 4-(2-{[5-((E)-2-Ethoxycarbonyl-vinyl)-4-phenyl-thiazole-2-carbonyl]-amino}-acetyl)-piperazine-1-carboxylic acid butyl ester] was 6.29.
Take `CCCCOC(=O)N1CCN(C(=O)CNC(=O)c2nc(-c3ccccc3)c(CCC(=O)OC)s2)CC1` [Example 54, 4-(2-{[5-(2-Methoxycarbonyl-ethyl)-4-phenyl-thiazole-2-carbonyl]-amino}-acetyl)-piperazine-1-carboxylic acid butyl ester]: the pIC50 is 6.26.
The same measure for `CCCCOC(=O)N1CCN(C(=O)CNC(=O)c2nc(-c3ccccc3)c(CCC(=O)O)s2)CC1` [Example 55, 4-(2-{[5-(2-Carboxy-ethyl)-4-phenyl-thiazole-2-carbonyl]-amino}-acetyl)-piperazine-1-carboxylic acid butyl ester]: 6.50; for `CCCCOC(=O)N1CCN(C(=O)[C@H](CCC(=O)O)NC(=O)c2nc(-c3ccccc3)c(Br)s2)CC1` [Example 56, 4-{(S)-2-[(5-Bromo-4-phenyl-thiazole-2-carbonyl)-amino]-4-carboxy-butyryl}-piperazine-1-carboxylic acid butyl ester]: 7.35.
